According to US7115611B2, “Phenyl derivatives, their manufacture and use as pharmaceutical agents” (Hoffmann-la Roche Inc., priority 2003, dated 2006):

Structure (SMILES) | melting point
Cc1cc(OCc2cnc(-c3ccc(C(F)(F)F)cc3)nc2C(F)(F)F)ccc1OC(C)(C)C(=O)O [Example 107, 2-Methyl-2-{2-methyl-4-[4-trifluoromethyl-2-(4-trifluoromethyl-phenyl)-pyrimidin-5-ylmethoxy]-phenoxy}-propionic acid] | 149 to 151 °C (dec.)
Cc1cc(OCc2cnc(-c3ccc(OC(F)(F)F)cc3)cc2Cl)ccc1OC(C)(C)C(=O)O [Example 109, 2-{4-[4-Chloro-6-(4-trifluoromethoxy-phenyl)-pyridin-3-ylmethoxy]-2-methyl-phenoxy}-2-methyl-propionic acid] | 179 to 181 °C (dec.)
Cc1cc(OCc2cnc(-c3ccc(C(F)(F)F)cc3)nc2CCO)ccc1OC(C)(C)C(=O)O [Example 110, 2-{4-[4-(2-Hydroxy-ethyl)-2-(4-trifluoromethyl-phenyl)-pyrimidin-5-ylmethoxy]-2-methyl-phenoxy}-2-methyl-propionic acid] | 155 to 155.5 °C
CC(C)(Oc1ccc(OCc2cnc(-c3ccc(C(F)(F)F)cc3)nc2C2CC2)c(F)c1)C(=O)O [Example 141, 2-{4-[4-Cyclopropyl-2-(4-trifluoromethyl-phenyl)-pyrimidin-5-ylmethoxy]-3-fluoro-phenoxy}-2-methyl-propionic acid] | 177.5 to 178 °C
Cc1cc(OCc2ccc(-c3ccc(C(F)(F)F)cc3)nc2C)ccc1SCC(=O)O [Example 146, {2-Methyl-4-[2-methyl-6-(4-trifluoromethyl-phenyl)-pyridin-3-ylmethoxy]-phenylsulfanyl}-acetic acid] | 168 to 169 °C

Second part, the compound after the results:

melting point | Structure (SMILES)
214 to 215 °C (dec.) | Cc1c(OCc2cnc(-c3ccc(C(F)(F)F)cc3)nc2C2CC2)ccc(OC(C)(C)C(=O)O)c1C [Example 106, 2-{4-[4-Cyclopropyl-2-(4-trifluoromethyl-phenyl)-pyrimidin-5-ylmethoxy]-2,3-dimethyl-phenoxy}-2-methyl-propionic acid]
148 to 149 °C | Cc1cc(OCc2cnc(-c3ccc(C(F)(F)F)cc3)cc2C(F)(F)F)ccc1OC(C)(C)C(=O)O [Example 108, 2-Methyl-2-{2-methyl-4-[4-trifluoromethyl-6-(4-trifluoromethyl-phenyl)-pyridin-3-ylmethoxy]-phenoxy}-propionic acid]
153.5 to 154.5 °C | Cc1cc(OCc2cnc(-c3ccc(OC(F)(F)F)cc3)nc2C(F)(F)F)ccc1OC(C)(C)C(=O)O [Example 111, 2-Methyl-2-{2-methyl-4-[2-(4-trifluoromethoxy-phenyl)-4-trifluoromethyl-pyrimidin-5-ylmethoxy]-phenoxy}-propionic acid]
119.5 to 120 °C | COCCc1nc(-c2ccc(C(F)(F)F)cc2)ncc1COc1ccc(OC(C)(C)C(=O)O)c(C)c1 [Example 140, 2-{4-[4-(2-Methoxy-ethyl)-2-(4-trifluoromethyl-phenyl)-pyrimidin-5-ylmethoxy]-2-methyl-phenoxy}-2-methyl-propionic acid]
127 to 128 °C (dec.) | Cc1cc(SCc2cnc(-c3ccc(OC(F)(F)F)cc3)nc2C2CC2)ccc1OC(C)(C)C(=O)O [Example 142, 2-{4-[4-Cyclopropyl-2-(4-trifluoromethoxy-phenyl)-pyrimidin-5-ylmethylsulfanyl]-2-methyl-phenoxy}-2-methyl-propionic acid]
129 to 131 °C | Cc1cc(SCc2cnc(-c3ccc(C(F)(F)F)cc3)nc2C2CC2)ccc1OC(C)(C)C(=O)O [Example 144, 2-{4-[4-Cyclopropyl-2-(4-trifluoromethyl-phenyl)-pyrimidin-5-ylmethylsulfanyl]-2-methyl-phenoxy}-2-methyl-propionic acid]
131 to 133 °C | Cc1cc(OCc2ccc(-c3ccc(OC(F)(F)F)cc3)nc2C2CC2)ccc1OC(C)(C)C(=O)O [Example 145, 2-{4-[2-Cyclopropyl-6-(4-trifluoromethoxy-phenyl)-pyridin-3-ylmethoxy]-2-methyl-phenoxy}-2-methyl-propionic acid]
